# Several values for one entry are separate records, joined by “and”; a condition that tells them apart may be missing. Equal entries are not always repeated.
# Test system: OVCAR-5 complex spheroid (HUVEC/MSC), viability % T/C
# Assay: Anticancer human tumor OVCAR-5 cell line growth inhibition [Asc];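 note: spheroids exposed to agents for 7 days before readout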;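 for viability, T/C: 100% = DMSO vehicle-treated wells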
# Conditions: for viability, T/C: stronger effect = lower value
# Procedure, shortened: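 Complex solid-tumor spheroids incorporating human endothelial and mesenchymal stem cells received single agents or combinations over half-log dilution ranges anchored to clinical Cmax.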
structure (smiles),measurement,setting,value
C=CC(=O)N1CCN(c2nc(=O)n(-c3c(C)ccnc3C(C)C)c3nc(-c4c(O)cccc4F)c(F)cc23)C(C)C1 (configuration not stated),"viability, T/C",compound 0.0316 µM,98.8% and 111% and 105%
same,"viability, T/C",compound 0.1 µM,103% and 112% and 98%
same,"viability, T/C",compound 0.316 µM,110% and 116% and 104%
same,"viability, T/C",compound 1 µM,122% and 114% and 107%
same,"viability, T/C",compound 3.16 µM,120% and 115% and 111%
same,"viability, T/C",compound 10 µM,97% and 100% and 104%
same,IC50,curve of compound,> 10000 nM
COc1c(OCCCN2CCOCC2)ccc2c3n(c(=NC(=O)c4cnc(N)nc4)nc12)CCN3 + CCN1C(C(=O)NC23CCC(C(=O)O)(CC2)CC3)C(c2cccc(Cl)c2F)C2(C(=O)Nc3cc(Cl)ccc32)C12CCCCC2,IC50,"curve of first compound, second compound 0.03 µM",36.4 nM
same,IC50,"curve of first compound, second compound 0.0949 µM",29.5 nM
same,IC50,"curve of first compound, second compound 0.3 µM",44.4 nM
same,IC50,"curve of first compound, second compound 0.949 µM",38.1 nM
same,IC50,"curve of first compound, second compound 3 µM",34.1 nM
same,"viability, T/C","second compound 0.03 µM, first compound 0.00316 µM",82.4%
same,"viability, T/C","second compound 0.03 µM, first compound 0.01 µM",79.6%
same,"viability, T/C","second compound 0.03 µM, first compound 0.0316 µM",49.8%
same,"viability, T/C","second compound 0.03 µM, first compound 0.1 µM",29.9%
same,"viability, T/C","second compound 0.03 µM, first compound 0.316 µM",20%
same,"viability, T/C","second compound 0.03 µM, first compound 1 µM",11.9%
same,"viability, T/C","second compound 0.0949 µM, first compound 0.00316 µM",91.6%
same,"viability, T/C","second compound 0.0949 µM, first compound 0.01 µM",75.8%
same,"viability, T/C","second compound 0.0949 µM, first compound 0.0316 µM",46.3%
same,"viability, T/C","second compound 0.0949 µM, first compound 0.1 µM",28.1%
same,"viability, T/C","second compound 0.0949 µM, first compound 0.316 µM",17.8%
same,"viability, T/C","second compound 0.0949 µM, first compound 1 µM",9.62%
same,"viability, T/C","second compound 0.3 µM, first compound 0.00316 µM",87.8%
same,"viability, T/C","second compound 0.3 µM, first compound 0.01 µM",82.3%
same,"viability, T/C","second compound 0.3 µM, first compound 0.0316 µM",56.6%
same,"viability, T/C","second compound 0.3 µM, first compound 0.1 µM",31.1%
same,"viability, T/C","second compound 0.3 µM, first compound 0.316 µM",17.8%
same,"viability, T/C","second compound 0.3 µM, first compound 1 µM",10.5%
same,"viability, T/C","second compound 0.949 µM, first compound 0.00316 µM",79.4%
same,"viability, T/C","second compound 0.949 µM, first compound 0.01 µM",75.1%
same,"viability, T/C","second compound 0.949 µM, first compound 0.0316 µM",54.8%
same,"viability, T/C","second compound 0.949 µM, first compound 0.1 µM",24.8%
same,"viability, T/C","second compound 0.949 µM, first compound 0.316 µM",17.3%
same,"viability, T/C","second compound 0.949 µM, first compound 1 µM",8.43%
same,"viability, T/C","second compound 3 µM, first compound 0.00316 µM",89.7%
same,"viability, T/C","second compound 3 µM, first compound 0.01 µM",83.9%
same,"viability, T/C","second compound 3 µM, first compound 0.0316 µM",51%
same,"viability, T/C","second compound 3 µM, first compound 0.1 µM",22%
same,"viability, T/C","second compound 3 µM, first compound 0.316 µM",15.2%
same,"viability, T/C","second compound 3 µM, first compound 1 µM",8.71%

# — PubChem BioAssay AID1963436 (Molecular Pharmacology Branch, DTP, NCI, 2024)
